In publication PMC7287031 (Pharmacology Research & Perspectives, 2020):
Read-outs that look alike come from different tables or passages of the source.

Experiments:
[1] = Tissue distribution by quantitative whole-body autoradiography (QWBA); assay type: in vivo; settings: rat QWBA
Procedure: ADME studies (including QWBA in pigmented and non‐pigmented rats) using radiolabeled ribociclib were conducted in rat and dog. Relevant institutional and national guides for the care and use of laboratory animals were followed.
QWBA studies were conducted with the tritium label in Hanover Wistar and partially pigmented Long‐Evans rats. A further QWBA study was conducted with the carbon‐14 label in male Long Evans rats in order to support the dosimetry calculation for the human ADME study. Briefly, 40‐µm thick lengthwise dehydrated whole body sections were exposed for 1 day to Fuji BAS III imaging plates (Fuji Photo Film Co., Ltd., J‐Tokyo) in a lead‐shielded box and room temperature, and scanned in a Fuji BAS 5000 phosphor imager at a 50‐µm scanning step. Concentrations of total radiolabeled components in the tissues were determined by comparative densitometry and digital analysis of the autoradiogram; blood samples of known radioactivity concentrations processed under the same conditions as the samples to analyze were used as calibrators.

[2] = Integrated estimation of ribociclib elimination pathways in humans; parameters: species or system human
[3] = Human ADME study: quantitative metabolite profiling in plasma; assay type: in vivo; settings: human plasma pools n=6, from metabolite patterns
Procedure: A plasma pool across the six healthy volunteers included in the study was prepared at the time points of 1 hour, 3 hours, 24 hours, and 48 hours post dose. For each time point, an equal volume of plasma was taken from each subject and combined. Plasma pool samples were processed by protein precipitation with acetonitrile. The protein pellet that resulted from precipitation with acetonitrile was washed further with additional aliquots of acetonitrile. All acetonitrile washes were combined and evaporated under nitrogen. For the 3‐ and 24‐hour plasma pools, the extraction procedure was slightly modified, including precipitation of the plasma proteins by addition of a 1:1 mixture of acetonitrile:methanol, followed by washing of the protein pellet with the same solvent mixture. All extracts were reconstituted with a solution of 15‐mM ammonium formate and acetonitrile (95:5 v/v). Extraction and reconstitution recoveries were measured in all four plasma samples in order to calculate and overall recovery. Quantitative metabolite profiling in plasma was accomplished using a Shimadzu Prominence high‐performance liquid chromatography (HPLC) system (Shimadzu, Columbia, MD, USA), coupled with fraction collection and analysis of total radioactivity in individual fractions using AMS (as described above). A second injection of each sample, conducted immediately after the first, was used to provide HPLC fractions for metabolite identification. The fractions identified as containing radioactivity from the AMS analysis were analyzed by HPLC coupled with high‐resolution mass spectrometry to identify the metabolites. The HPLC‐MS/MS methodology used is described below.

[4] = Dog pharmacokinetic studies: plasma PK of ribociclib after single i.v. or oral dose; assay type: in vivo; settings: male; for half-life: read-out: t½ (converted)
Procedure: ADME studies (including QWBA in pigmented and non‐pigmented rats) using radiolabeled ribociclib were conducted in rat and dog. Relevant institutional and national guides for the care and use of laboratory animals were followed. […]

CYP1A2 = molecular target: T1, CYP1A2 (Homo sapiens, UniProt P05177); assay: Enzyme kinetics with recombinant CYP1A2 and scaling to HLM; assay type: in vitro ADME
T1 construct: purchased BD Biosciences
T1 sequence (P05177 1-516): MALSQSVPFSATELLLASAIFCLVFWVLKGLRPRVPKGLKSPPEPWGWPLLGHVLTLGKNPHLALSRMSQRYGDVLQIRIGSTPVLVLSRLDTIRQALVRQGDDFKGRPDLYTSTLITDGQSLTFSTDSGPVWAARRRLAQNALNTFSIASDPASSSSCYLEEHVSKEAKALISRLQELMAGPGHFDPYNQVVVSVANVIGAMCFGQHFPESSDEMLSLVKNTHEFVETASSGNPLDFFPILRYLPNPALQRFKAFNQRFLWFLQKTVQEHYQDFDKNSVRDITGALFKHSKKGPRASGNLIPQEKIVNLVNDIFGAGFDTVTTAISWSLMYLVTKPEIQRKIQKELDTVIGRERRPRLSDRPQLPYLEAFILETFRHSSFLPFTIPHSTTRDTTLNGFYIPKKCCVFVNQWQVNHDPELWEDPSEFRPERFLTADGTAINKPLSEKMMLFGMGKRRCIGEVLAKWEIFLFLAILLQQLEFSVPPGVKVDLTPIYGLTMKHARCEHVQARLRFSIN
Procedure: In vitro incubations were carried out in 100‐mM potassium phosphate buffer (pH 7.4) and 5‐mM MgCl2 with a total volume of 200 µL. Substrate and either human liver microsomes (HLM, BD Biosciences, mixed gender pool of n = 50) or recombinant human enzymes (BD Biosciences) were added and pre‐incubated for 3 minutes at 37°C. The reaction was started by addition of a fresh solution of NADPH (1 mmol/L final concentration). The samples were incubated at 37°C with agitation of 500 rpm. For incubations with CYP2A6, CYP2C9, CYP2C18, and CYP4A11, the phosphate buffer was replaced by TRIS buffer (100 mmol/L, pH 7.4) and for flavin‐containing monooxygenases (FMOs), a glycine buffer (50 mM, pH 9.5) was used.
The enzymatic reaction was stopped and the protein was precipitated by addition of an equal volume of methanol. After 30 min at −80°C, the samples were centrifuged at 30'000 x g for 15 min. The supernatant was withdrawn. Aliquots were analyzed by LSC and the supernatant was diluted with water to obtain a final solution containing less than 20% of the organic solvent. For samples of low substrate concentration, supernatants were evaporated to dryness under nitrogen, then re‐suspended in water containing less than 20% of methanol. Samples were analyzed by HPLC combined with radiodetection. […]

[5] = human estimate based on rat ADME data
[6] = Beagle, 0.5 mg/kg, dog m (3), po, 0.5 mg base/kg
[7] = Beagle, 5 mg/kg, dog m (3), po, 5.0 mg base/kg
[8] = Beagle, dog m (4), po, 18.9 mg base/kg

SMILES: CN(C)C(=O)c1cc2cnc(Nc3ccc(N4CCNCC4)cn3)nc2n1C1CCCC1 [ribociclib, Ribociclib]
- time of last measurable concentration (total radioactivity) ([1]; 52 of 58 tissues investigated): ≤ 48 h
- time of last measurable concentration (total radioactivity) ([1]; eyes and meninges, last observation time point): 840 h
- tissue distribution of total radioactivity ([1]; intravenous or oral dose): marked distribution into the extravascular compartment, except for brain
- time of last measurable concentration (total radioactivity) ([1]; lymph nodes, preputial gland, testis): 168 h
- biliary elimination, share of total [2, 5]: 1%
- elimination by intestinal excretion/secretion, share of total [2, 5]: 8%
- elimination by hepatic metabolism, share of total ([2]; human, integrated estimate): approx. 84%
- elimination by renal excretion, share of total ([2]; human, integrated estimate): 7%
- AUC0-48h, % of total [14C]-AUC0-48 [3]: approximately 43.5%
- AUC0-48h, % of total [14C]-AUC0-48 ([3]; listed as Ribociclib): 43.5%
- Cmax [4, 6]: 10.4 ng/mL
- bioavailability [4, 6]: 64%
- AUC(0-t) ([4]; Beagle, 0.5 mg/kg, dog m (3), po, 0.5 mg base/kg, AUC interval 24 h): 155 ng·h/mL
- Cmax [4, 7]: 206 ng/mL
- Tmax [4, 7]: 1 h
- AUC(0-t) ([4]; Beagle, 5 mg/kg, dog m (3), po, 5.0 mg base/kg, AUC interval 168 h): 4520 ng·h/mL
- half-life [4, 7]: 38.8 h
- Cmax [4, 8]: 1220 ng/mL
- Tmax [4, 8]: 1 h
- bioavailability [4, 8]: 87%
- AUC(0-t) ([4]; Beagle, dog m (4), po, 18.9 mg base/kg, AUC interval 48 h): 21100 ng·h/mL
- half-life [4, 8]: 12.6 h
- AUC(0-t) ([4]; Beagle, iv, 0.2 mg/kg, dog m (3), 0.2 mg base/kg, AUC interval 24 h): 105 ng·h/mL
- clearance ([4]; iv, dog m (3), 0.2 mg base/kg): 31.7 mL/min/kg
- Vd ([4]; iv, dog m (3), i.v., 0.2 mg base/kg, read-out: Vss): 27.9 L/kg
- half-life ([4]; iv, dog m (3), i.v., 0.2 mg base/kg): 18.1 h
- fm,CYP (CYP1A2; CYP1A2, share of total CYP-mediated metabolism in HLM): 1.1%
- fumic (CYP1A2; CYP1A2 incubation): 0.86
